From US10294202B2, “Pyrrolidinones as herbicides” (FMC Corporation, priority 2013, dated 2019)

Tests used:
[1] = tested on: speedwell; assay: Test D pre-/postemergence herbicide test; assay type: in vivo, Veronica persica; settings: for Plant response rating: Postemergence, Speedwell, scale 0 to 100; for Plant response rating, Speedwell: Preemergence, scale 0 to 100 (0 no effect, 100 complete control)
Source text: (§1) Seeds of plant species selected from bluegrass (annual bluegrass, Poa annua), blackgrass (Alopecurus myosuroides), canarygrass (littleseed canarygrass, Phalaris minor), chickweed (common chickweed, Stellaria media), galium (catchweed bedstraw, Galium aparine), bromegrass, downy (downy bromegrass, Bromus tectorum), field poppy (Papaver rhoeas), field violet (Viola arvensis), foxtail, green (green foxtail, Setaria viridis), deadnettle (henbit deadnettle, Lamium amplexicaule), ryegrass, Italian (Italian ryegrass, Lolium multiflorum), kochia (Kochia scoparia), lambsquarters (Chenopodium album), oilseed rape (Brassica napus), pigweed (Amaranthus retroflexus), chamomile (scentless chamomile, Matricaria inodora), Russian thistle (Salsola kali), speedwell (bird's-eye speedwell, Veronica persica), barley, spring (spring barley, Hordeum vulgare), wheat, spring (spring wheat, Triticum aestivum), buckwheat, wild (wild buckwheat, Polygonum convolvulus), mustard, wild (wild mustard, Sinapis arvensis), oat, wild (wild oat, Avena fatua), radish, wild (wild radish, Raphanus raphanistrum), […]), barley, winter (winter barley, Hordeum vulgare), and wheat, winter (winter wheat, Triticum aestivum) were planted into a silt loam soil and treated preemergence with test chemicals formulated in a non-phytotoxic solvent mixture which included a surfactant. At the same time, these species were planted in pots containing Redi-Earth® planting medium (Scotts Company, 14111 Scottslawn Road, Marysville, Ohio 43041) comprising spaghnum peat moss, vermiculite, wetting agent and starter nutrients and treated with postemergence applications of the test chemicals formulated in the same manner. Plants ranged in height from 2 to 18 cm (1- to 4-leaf stage). Treated plants and controls were maintained in a controlled growth environment for 7 to 21 days after which time all species were compared to controls and visually evaluated. Plant response ratings, summarized in Table D, are based on a scale of 0 to 100 where 0 is no effect and 100 is complete control. A dash (-) response means no test result.

[2] = tested on: mustard, wild; assay: Test D pre-/postemergence herbicide test; assay type: in vivo, Sinapis arvensis; settings: for Plant response rating: Mustard, Wild, scale 0 to 100; for Plant response rating, Mustard, Wild: scale 0 to 100 (0 no effect, 100 complete control)
Source text: as §1

[3] = tested on: radish, wild; assay: Test D pre-/postemergence herbicide test; assay type: in vivo, Raphanus raphanistrum; settings: for Plant response rating: Postemergence, Radish, Wild, scale 0 to 100; for Plant response rating, Radish, Wild: Preemergence, scale 0 to 100 (0 no effect, 100 complete control)
Source text: as §1

[4] = tested on: corn; assay: Test E preemergence herbicide test; assay type: in vivo, Zea mays; design: key: 0 = no effect, 100 = complete control
Source text: (§2) Seeds of plant species selected from corn (Zea mays), soybean (Glycine max), velvetleaf (Abutilon theophrasti), lambsquarters (Chenopodium album), wild poinsettia (Euphorbia heterophylla), pigweed, palmer (palmer pigweed, Amaranthus palmeri), waterhemp (common waterhemp, Amaranthus rudis), surinam grass (Brachiaria decumbens), crabgrass, large (large crabgrass, Digitaria sanguinalis), crabgrass, Brazil (Brazilian crabgrass, Digitaria horizontalis), panicum, fall (fall panicum, Panicum dichotomiflorum), foxtail, giant (giant foxtail, Setaria faberii), foxtail, green (green foxtail, Setaria viridis), goosegrass (Eleusine indica), johnsongrass (Sorghum halepense), ragweed (common ragweed, Ambrosia elatior), barnyardgrass (Echinochloa crus-galli), sandbur (southern sandbur, Cenchrus echinatus), arrowleaf […] rhombifolia), ryegrass, Italian (Italian ryegrass, Lolium multiflorum), dayflower, VA (Virginia dayflower, Commelina virginica), field bindweed (Convolvulus arvensis), morningglory (Ipomoea coccinea), nightshade (eastern black nightshade, Solanum ptycanthum), kochia (Kochia scoparia), nutsedge, yellow (yellow nutsedge, Cyperus esculentus), cocklebur (common cocklebur, Xanthium strumarium), smartweed (ladysthumb smartweed, Polygonum Persicaria) and beggarticks (hairy beggarticks, Bidens pilosa), were planted into a silt loam soil and treated preemergence with test chemicals formulated in a non-phytotoxic solvent mixture which included a surfactant. Treated plants and controls were maintained in a greenhouse for 21 days, after which time all species were compared to controls and visually evaluated. Plant response ratings, summarized in Table E, are based on a scale of 0 to 100 where 0 is no effect and 100 is complete control. A dash (-) response means no test result.

[5] = tested on: kochia; assay: Test E preemergence herbicide test; assay type: in vivo, Kochia scoparia; design: key: 0 = no effect, 100 = complete control
Source text: as §2

[6] = tested on: ryegrass, Italian; assay: Test E preemergence herbicide test; assay type: in vivo, Lolium multiflorum; design: key: 0 = no effect, 100 = complete control
Source text: as §2

Structure (SMILES)	Plant response rating ([1]; 16 g ai/ha)	Plant response rating ([1]; 31 g ai/ha)	Plant response rating ([1]; 62 g ai/ha)	Plant response rating ([1]; 125 g ai/ha)	Plant response rating ([1]; 250 g ai/ha)	Plant response rating, Speedwell ([1]; 62 g ai/ha)	Plant response rating, Speedwell ([1]; 125 g ai/ha)	Plant response rating, Speedwell ([1]; 16 g ai/ha)	Plant response rating, Speedwell ([1]; 31 g ai/ha)	Plant response rating, Speedwell ([1]; 250 g ai/ha)	Plant response rating ([2]; Postemergence, 16 g ai/ha)	Plant response rating ([2]; Postemergence, 31 g ai/ha)	Plant response rating ([2]; Postemergence, 125 g ai/ha)	Plant response rating ([2]; Postemergence, 250 g ai/ha)	Plant response rating, Mustard, Wild ([2]; Preemergence, 62 g ai/ha)	Plant response rating, Mustard, Wild ([2]; Preemergence, 16 g ai/ha)	Plant response rating, Mustard, Wild ([2]; Preemergence, 31 g ai/ha)	Plant response rating ([2]; Preemergence, 125 g ai/ha)	Plant response rating ([2]; Preemergence, 250 g ai/ha)	Plant response rating ([3]; 31 g ai/ha)	other results
O=C1NCC(c2ccc(F)c(F)c2)C1C(=O)Nc1ccccc1C(F)(F)F (racemic) [Compound 6]	0	0	0	0	15	10	30	0	10	50	0	0	0	0	0	0	0	10	20	0	Plant response rating ([3]; 16 g ai/ha): 0; Plant response rating ([3]; 62 g ai/ha): 0; Plant response rating ([3]; 125 g ai/ha): 0; Plant response rating ([3]; 250 g ai/ha): 10; Plant response rating, Radish, Wild ([3]; 16 g ai/ha): 0
O=C1NCC(c2ccc(Cl)c(Cl)c2)C1C(=O)Nc1ccccc1F (racemic) [Compound 14]	–	–	–	–	–	–	–	–	–	–	–	–	–	–	–	–	–	–	–	–	Plant response rating, Corn ([4]; 16 g ai/ha): 0; Plant response rating, Corn ([4]; 31 g ai/ha): 0; Plant response rating, Corn ([4]; 62 g ai/ha): 0; Plant response rating, Corn ([4]; 125 g ai/ha): 0; Plant response rating, Corn ([4]; 250 g ai/ha): 0; Plant response rating, Kochia ([5]; 16 g ai/ha): 0; Plant response rating, Kochia ([5]; 31 g ai/ha): 0; Plant response rating, Kochia ([5]; 62 g ai/ha): 0; Plant response rating, Kochia ([5]; 125 g ai/ha): 0; Plant response rating, Kochia ([5]; 250 g ai/ha): 0; Plant response rating, Ryegrass, Italian ([6]; 16 g ai/ha): 0; Plant response rating, Ryegrass, Italian ([6]; 31 g ai/ha): 0; Plant response rating, Ryegrass, Italian ([6]; 62 g ai/ha): 0; Plant response rating, Ryegrass, Italian ([6]; 125 g ai/ha): 0; Plant response rating, Ryegrass, Italian ([6]; 250 g ai/ha): 0
O=C1NCC(c2ccc(F)c(C(F)(F)F)c2)C1C(=O)Nc1cccc(F)c1F (racemic) [Compound 77]	–	–	–	–	–	25	35	–	20	100	–	–	–	–	20	–	0	25	45	–	Plant response rating, Radish, Wild ([3]; 62 g ai/ha): 10; Plant response rating, Radish, Wild ([3]; 125 g ai/ha): 25; Plant response rating, Radish, Wild ([3]; 31 g ai/ha): 0; Plant response rating, Radish, Wild ([3]; 250 g ai/ha): 30
O=C1NCC(c2ccc(OC(F)F)cc2)C1C(=O)Nc1cccc(F)c1F (racemic) [Compound 350]	–	–	–	–	–	–	–	–	–	–	–	–	–	–	–	–	–	–	–	–	Plant response rating, Corn ([4]; 31 g ai/ha): 0; Plant response rating, Corn ([4]; 62 g ai/ha): 0; Plant response rating, Corn ([4]; 125 g ai/ha): 0; Plant response rating, Corn ([4]; 250 g ai/ha): 0; Plant response rating, Kochia ([5]; 31 g ai/ha): 0; Plant response rating, Kochia ([5]; 62 g ai/ha): 40; Plant response rating, Kochia ([5]; 125 g ai/ha): 75; Plant response rating, Kochia ([5]; 250 g ai/ha): 90; Plant response rating, Ryegrass, Italian ([6]; 31 g ai/ha): 0; Plant response rating, Ryegrass, Italian ([6]; 62 g ai/ha): 25; Plant response rating, Ryegrass, Italian ([6]; 125 g ai/ha): 20; Plant response rating, Ryegrass, Italian ([6]; 250 g ai/ha): 35
O=C1NCC(c2cc(F)c(F)cc2F)C1C(=O)Nc1cccc(F)c1F (stereo not drawn) [Compound 50]	0	–	–	–	–	0	0	0	0	–	40	60	40	–	0	50	–	80	–	0	Plant response rating ([3]; 16 g ai/ha): 0; Plant response rating ([3]; 62 g ai/ha): 0; Plant response rating ([3]; 125 g ai/ha): 0; Plant response rating, Radish, Wild ([3]; 62 g ai/ha): 0; Plant response rating, Radish, Wild ([3]; 16 g ai/ha): 0
O=C1NCC(c2ccc(Cl)c(F)c2)C1C(=O)Nc1cccc(F)c1F (stereo not drawn) [Compound 52]	20	20	25	40	70	90	100	0	90	100	0	10	20	25	0	0	0	0	10	–	Plant response rating ([2]; Postemergence, 62 g ai/ha): 20; Plant response rating, Radish, Wild ([3]; 16 g ai/ha): 0
O=C1NCC(c2ccc(C(F)(F)F)cc2)C1C(=O)Nc1ccccc1F (stereo not drawn) [Compound 231]	–	60	70	75	75	80	100	–	75	100	–	35	65	75	10	–	0	–	15	30	Plant response rating ([2]; Postemergence, 62 g ai/ha): 65; Plant response rating, Mustard, Wild ([2]; Preemergence, 125 g ai/ha): 0; Plant response rating ([3]; 62 g ai/ha): 70; Plant response rating ([3]; 125 g ai/ha): 75; Plant response rating ([3]; 250 g ai/ha): 70; Plant response rating, Radish, Wild ([3]; 62 g ai/ha): 0; Plant response rating, Radish, Wild ([3]; 125 g ai/ha): 0; Plant response rating, Radish, Wild ([3]; 31 g ai/ha): 0; Plant response rating, Radish, Wild ([3]; 250 g ai/ha): 0
